Laboratory results reported in patent EP1978972B1, “USE OF ALKYLGLUCOSIDE ESTERS AS BETA-DEFENSIN INDUCERS” (Pierre Fabre Dermo-Cosmétique, priority 2006, dated 2007).
Like-named read-outs stand apart in the source and are kept apart here.

How the values were obtained:
[1] = system: hBD-2; assay type: cell-based, human; conditions: skin explant, systemic, 3 µg/ml, 2 h and 15 h, in words
Text: (§1) Il est connu de WO 97/45101 que les esters d'α-alkylglucoside peuvent être utilisés comme agent anti-microbien et/ou anti-fongique pour agir en tant que conservateur dans une composition, pour la préserver d'un développement microbien. D'autre part, les propriétés moussantes des esters de méthyl glucose sont décrites dans Desai et al (« Sofw Journal Seife, Oele, Fette, Wachse, Verlag für chemische Industrie » 1991). • Modèle cellulaire : lignée cellulaire HaCat, kératynocytes d'origine humaine, primoculture de kératinocytes humains • Modèle tissulaire : • Explants de peau normale provenant de déchet opératoire de chirurgie esthétique • Explants de gencive normale provenant de déchet opératoire de chirurgie implantatoire ou d'épithélium gingival reconstruit à partir de cellules épithéliales orales primaires • ➢ Les cellules HaCat sont ensemencées et cultivées en plaque 6 puits à 200 000 cellules/puits sous un volume de 2 ml de milieu de culture DMEM 1640 : (Ref: Invitrogen) complémenté par 10 % de sérum de veau foetal (SVF, Ref : CH30160.02 Perbio-Hyclone) pendant 18 h (sur la nuit). • ➢ A T0 les cellules sont lavées avec du tampon Phosphate (PBS, Ref: 52100-039 Invitrogen) puis privées en sérum pour les rendre quiescentes pendant 24 h (ralentissement de leur croissance et élimination de toute trace de facteurs susceptibles de perturber les effets induits par les traitements ultérieurs). • ➢ A T0+24 h les cellules sont traitées par des cytokines pro-inflammatoires (TNF-α à 10 ng/ml, IL1-β à 10 ng/ml) ou des éléments bactériens (LPS à 50 ng/ml, SEB à 100 ng/ml) ou des actifs potentiels de type « alkyle mono- ou di-ester d'α,β-butylglucoside » dilués dans du DMEM (1 ml/puits); La durée du traitement est de 3 h à 37°C. • ➢ Les kératinocytes primaires sont préparés à partir de peau normale provenant de déchet opératoire de chirurgie esthétique. Ils sont ensemencés et cultivés en plaque 24 puits à 60 000 cellules/puits sous un volume de 0,5 ml de milieu de culture KSFM (Ref : 37010 Invitrogen) complémenté par de l'EGF (Epidermal Growth Factor) à 1,5 ng/ml et du BPE (bovine pituitary extract) à 25 µg/ml pendant 24 h. • ➢ A J0, le milieu est remplacé par 0,5 ml de milieu KSFM complet, additionné de 1,2 nM de calcium. • ➢ A J+3, les cellules sont traitées par des cytokines pro-inflammatoires TNF-α et IL 1-β à 10 ng/ml ou des actifs potentiels de type « alkyle mono- ou di-ester d'α,β-butylglucoside » dilués dans 0,3 ml de milieu KSFM complet, en présence de 1,2 nM de calcium. […]

[2] = system: S. aureus; assay: Adhesion of S. aureus on skin explant (modified Franz cell), count of adherent bacteria; assay type: cell-based, Staphylococcus aureus; conditions: topical 30 µg/ml
Text: Pour révéler le complexe Antigène-Anticorps, le kit DAKO LSAB® (DAKO Corporation) est utilisé selon les recommandations du fournisseur. La révélation est réalisée à l'aide d'un substrat de la péroxydase : la 3,3'diaminobenzidine (DAB) (DAKO Corporation). La réaction enzymatique est révélée par une coloration brune. • ➢L'adhésion des micro-organismes est réalisée dans une cellule à double compartimentation, de type cellule de Franz modifiée. • ➢Une suspension de S.aureus (CIP 53.154) équivalente à 0,5.10^7 micro-organismes est introduite au sein du compartiment supérieur de la cellule. Le dispositif est incubé de 2 h à 37°C sous une atmosphère à 5 % de CO2. A la fin de cette période d'incubation, le surnageant est retiré afin d'éliminer les bactéries non adhérentes. Les échantillons de peau sont ensuite rincés deux fois avec 1 ml de mélange DMEM/HAMF12. Un dénombrement bactérien à l'issue de cette étape donne la proportion de bactéries ayant adhéré à l'explant (T+2 h). Un témoin est réalisé dans le but de déterminer l'adhésion non spécifique des bactéries. • ➢La stimulation de l'expression des β-défensines cutanées précède l'étape d'adhésion. Son objectif est d'étudier l'impact de l'induction des peptides antimicrobiens par des actifs potentiels de type « alkyle mono- ou di-ester d'α,β-butylglucoside » sur l'adhésion de souches bactériennes. Le traitement est effectué en topique ou en systémique. Le temps de stimulation des explants cutanés est de 24 h à 37°C en présence de 5 % de CO2.
Pour analyse, les explants sont retirés de leur cellule, des punchs de diamètres différents (3 mm, 4 mm et 6 mm) sont effectués pour un test MTT de survie, les marquages immuno-histologiques et les analyses des transcrits par RT-PCR. Le reste de peau est utilisé pour une estimation de la flore bactérienne adhérente.
Le dénombrement de la flore bactérienne adhérente exogène par unité de surface de peau a été effectué selon deux méthodes : • par dénombrement bactérien sur milieu solide • par comptage de la radioactivité émise (la souche contaminante étant marquée au H^3) est effectuée. […]
Après une application topique de 5 h et plusieurs rinçages de la surface épidermique d'un explant cutané, l'effet du traitement par l'α,β-LBG brut sur l'adhésion de S.aureus sur ce même explant a été quantifié par le dénombrement des germes adhérents à l'issue d'une mise en contact de 2 h. […]
Après application topique et plusieurs rinçages de la surface épidermique des explants cutanés, l'effet du traitement par les isoformes de l'ester de laurate de butylglucoside pur à 90 %, séparées, α seul, β seul, ou en mélange α,β-LBG (56 % α/44 % β) sur l'adhésion de S. aureus sur l'épiderme a été comparé après quantification des germes adhérents par dénombrement.

[3] = system: hBD-2; assay: cells; assay type: cell-based, human; conditions: HaCat; for induction de la synthèse du peptide hBD-2: starting materials of the enzymatic synthesis, in words
Text: as §1, with “esthétique.” for “esthétique. Ils sont ensemencés et cultivés en plaque 24 puits à 60 000 cellules/puits sous un volume de 0,5 ml de milieu de culture KSFM (Ref : 37010 Invitrogen) complémenté par de l'EGF (Epidermal Growth Factor) à 1,5 ng/ml et du BPE (bovine pituitary extract) à 25 µg/ml pendant 24 h. • ➢ A J0, le milieu est remplacé par 0,5 ml de milieu KSFM complet, additionné de 1,2 nM de calcium. • ➢ A J+3, les cellules sont traitées par des cytokines pro-inflammatoires TNF-α et IL 1-β à 10 ng/ml ou des actifs potentiels de type « alkyle mono- ou di-ester d'α,β-butylglucoside » dilués dans 0,3 ml de milieu KSFM complet, en présence de 1,2 nM de calcium.”
La méthode de RT-PCR quantitative utilisée est décrite dans le matériel et méthode. […]

## laurate de butylglucoside [αβ-LBG pur]
[1]
  induction de l'expression du gène hBD-2: potentiel inducteur significatif surtout après une durée de traitement longue
[2]; LBG pur à 90 %, vs untreated control
  baisse moyenne de l'adhésion de S. aureus: ~19%

## αβ-butylglucoside
[3]
  induction de la synthèse du peptide hBD-2: ne provoquent pas une induction

## laurate de butylglucoside [β-LBG pur]
[2]; comparison of isoforms, in words
  limitation de l'adhésion de S. aureus: en moyenne plus actif sur la limitation de l'adhésion de S. aureus que l'isoforme α-LBG

## CCCCCCCCCCCC(=O)O [Acide Laurique]
[3]
  induction de la synthèse du peptide hBD-2: ne provoquent pas une induction
[3]; Homo sapiens, hBD-2 mRNA, 3 h, 10 µg/ml, vs unstimulated control, read-out: Facteur d'induction (FI)
  fold induction at 10 µg/mL: 1.1

## laurate de butylglucoside [α-LBG pur]
[1]; listed as α-LBG pure
  induction de l'expression du gène hBD-2: ne présente pas d'activité
